Test results: patent US6531148B1, “Therapeutic agents” (Takara Shuzo Co., Ltd., priority 1998, dated 2003)

Columns and labels:
[1] = tested on: lipid peroxide radical production; experiment: Lipid peroxide radical production inhibition test; format: cell-based, Staphylococcus aureus 3A; conditions: for Growth of bacteria: 37° C., 30 minutes
[2] = tested on: inducible NO synthase (iNOS); experiment: iNOS expression (RT-PCR, Western blotting); format: cell-based; conditions: RAW264.7 cells cultured for 4, 6 or 8 hours
Experimental: The present inventors have confirmed that the compound of formula (I), the compound of formula (II) and salts thereof inhibit the expression of iNOS. The confirmation was carried out at protein level by using Western blotting and at messenger RNA level by using RT-PCR. […] Therefore, the compound is effective in treating and preventing diseases that require inhibition of NO production for their treatment and prevention.
RNA was prepared from RAW264.7 cells cultured for 4, 6 or 8 hours under conditions similar to those described above. The amount of mRNA encoding inducible NO synthase [iNOS; Biochem. Byophys. Res. Commun., 215:148-153 (1995)] contained in the RNA was determined by the RT-PCR method.

[3] = tested on: human FGF-β; experiment: Cytokine production from DSEK cells (ELISA); format: cell-based; conditions: DSEK culture supernatant at 24 or 72 hours
Experimental: (§1) 150 μl/well of culture supernatant was recovered from the DSEK cell culture at 24 or 72 hours. The effects of DGE on the production (expression) of cytokines (human TGF-β, human FGF-β, human IL-1α and human IL-10) from the cell were determined using ELISA kits specific for the respective cytokines (from Intergen for human FGF-β and human IL-10; and from Promega for human IL-1α and human TGF-β).

[4] = tested on: human IL-10; experiment: Cytokine production from DSEK cells (ELISA); format: cell-based; conditions: DSEK culture supernatant at 24 or 72 hours
Experimental: as §1

[5] = tested on: human IL-1α; experiment: Cytokine production from DSEK cells (ELISA); format: cell-based; conditions: DSEK culture supernatant at 24 or 72 hours
Experimental: as §1

[6] = tested on: human TGF-β; experiment: Cytokine production from DSEK cells (ELISA); format: cell-based; conditions: DSEK culture supernatant at 24 or 72 hours
Experimental: as §1

[7] = tested on: HL-60 cells; experiment: Antiproliferation activity against tumor cells (MTT, absorbance at 590 nm); format: cell-based
Experimental: The Samples 1 to 3 were separately sterilized by filtration and appropriately diluted with sterile water. 10 μl of each dilution was placed in a well of a 96-well microtiter plate. 90 μl of RPMI 1640 medium (Nissui) containing 10% fetal bovine serum (Gibco), which had been treated at 56° C. for 30 minutes, and 5,000 HL-60 cells (ATCC CCL-240) was added thereto. The plate was incubated at 37° C. for 48 hours in the presence of 5% CO2. The cell morphology was examined under an optical microscope. 10 μl of 5 mg/ml 3-(4,5-dimethylthiazol-2-yl)-2,5-diphenyltetrazolium bromide (Sigma) solution in phosphate buffered saline was further added thereto and the incubation was continued for additional 4 hours. 100 μl of 2-propanol containing 0.04 N HCl was added to the well and the mixture was thoroughly stirred. The absorbance at 590 nm was measured to determine the cell growth level.

Compound	activity of inhibiting lipid peroxide radical production [1]	Growth of bacteria ([1]; DGE 1 mM in the reaction mixture with tert-butyl hydroperoxide)	Growth of bacteria ([1]; DGE 10 mN in the reaction mixture with tert-butyl hydroperoxide)	amplification of a DNA fragment from the iNOS mRNA [2]	production of human FGF-β [3]	production of human IL-10 [4]	production of human IL-1α [5]	production of human TGF-β [6]	antiproliferation activity against tumor cells ([7]; 48 hours, absorbance at 590 nm)	GI50, the concentration that results in 50% growth inhibition ([7]; half absorbance at 590 nm compared with water control)	formation of apoptotic bodies ([7]; optical microscope)
O=C1C=CC(CO)OC1O [DGE, L-glycero-1,5-epoxy-1αβ,6-dihydroxy-cis-hex-3-en-2-one]	exhibited an activity of inhibiting lipid peroxide radical production	−	+	no amplification of the fragment was observed	inhibiting the production	enhancing the production	inhibiting the production	enhancing the production			
5-L-glutathion-S-yl-2-hydroxy-3,7-dioxabicyclo[2.2.2]octan-1-ol [DGE-GSH]									inhibition of cell growth	about 48.7 μg/ml	apoptotic bodies were observed
